Assay [1] relates to JJ5 Breast Cancer cells. Put plainly: Cytotoxicity (colony-forming) assay against JJ5 breast cancer cells. The settings on record: 14 days. The assay is classed as cell-based, human. Here is the method: JJ5 breast cancer cells were incubated with increasing amounts EGF-^111In-labeled transferrin composition or ^111In-oxine, centrifuged to remove free ligand, assayed and then seeded into 50 mm culture dishes. The number of cells seeded was varied from 3×10^4 to 3×10^6 cells to obtain approximately 400 viable colonies/dish taking into account the plating efficiency and the expected level of cytotoxicity. Control dishes contained JJ5 breast cancer cells which were incubated with normal saline. Growth medium was added and the cells were cultured at 37° C./5% CO^2 for 14 days. The growth medium was removed and the colonies were stained with methylene blue (1% in a 1:1 mixture of ethanol and water) then washed twice. The number of colonies per dish was counted using a manual colony counter (Manostat Corp). The plating efficiency was calculated by dividing the number of colonies observed by the number of cells seeded in each dish. The surviving fraction at increasing amounts of EGF-^111In-labeled transferrin composition or ^111In-oxine was calculated by dividing the plating efficiency for dishes containing treated cells with that observed for control dishes with normal saline.

Assay [2] has as its system JJ5 Breast Cancer cells. Put plainly: Growth inhibition assay against JJ5 breast cancer cells. Format: cell-based, human. The following applies: 4 days culture. Here is the method:
JJ5 breast cancer cells (prepared from BCBM JJ5) expressing approximately 10^6 epidermal growth factor receptors/cell were incubated with EGF-^111In-labeled transferrin composition, unlabeled hEGF or ^111In-oxine, centrifuged to remove free ligand, then assayed and seeded (10^6 cells/dish) into 35 mm culture dishes. Growth medium was added and the cells were cultured at 37° C./5% CO^2 for 4 days. The cells were then recovered by trypsinization and counted in a hemocytometer. Control dishes contained cells cultured in growth medium containing ^111In-DTPA or growth medium alone.

Assay [3] has as its system JJ5 Breast Cancer cells. Put plainly: Binding of EGF-111In-labeled transferrin composition to JJ5 breast cancer cells (radioligand binding, kinetics, internalization). Further details: species or system human. Here is the method:
For the normal breast cell line HBL-100, 8000 EGFR/cell has been reported. The expression of EGFR in breast cancer cell lines has a reported range of 800 EGFR/cell for MCF-7 cells to 10^6 EGFR/cell for MDA-MB-468 cells. […] Utilizing the Auger electron emitter ^111In was used in the initial experiments to illustrate the utility of the invention using EGF-111In-labeled transferrin compositions. The EGF-^111-In-labeled transferrin (0.25-80 ng) was incubated with 1.5×10^6 cells/dish JJ5 Breast Cancer (prepared from BCBM JJ5) cells in 1 mL of 0.1% human serum albumin in 35 mm multiwell culture dishes at 37° C. for 30 minutes. The cells were transferred to a centrifuge tube and centrifuged. The cell pellet was separated from the supernatant and counted in a g-scintillation counter to determine bound (B) and free (F) radioactivity. Non-specific binding was determined by conducting the assay in 100 nM hEGF. The kinetics of binding was determined by incubating 1 ng of EGF-^111In-labeled transferrin composition with 3×10^6 JJ5 Breast Cancer cells at 37° C. and determining the proportion of radioactivity bound to the cells at various times up to 24 hours. Internalized fraction was measured by determining the proportion of radioactivity which could not be displaced from the cell surface by 100 nM hEGF. Cell-associated binding (surface-binding and intracellular accumulation) was expressed as a percentage of medium radioactivity bound per mg of cell study protein.

`[In+3].[O-]c1cccc2cccnc12.[O-]c1cccc2cccnc12.[O-]c1cccc2cccnc12` [^111In-oxine, reference compound]: in the assay on JJ5 Breast Cancer cells [1] (<6 pCi/cell), the cell killing result is given as “greater than 99%”. Moreover, the “growth inhibition of the JJ5 cells” value in the assay with JJ5 Breast Cancer cells [2] (3.5 pCi/cell) was determined as 91%.
For the molecule “EGF-^111In-labeled transferrin composition: human EGF linked to human transferrin radiolabeled with Auger electron emitter 111In at the iron-binding sites”, in the assay on JJ5 Breast Cancer cells [1] (8 pCi/cell), the “reduction in cell survival for JJ5 cells” value is recorded as 99%. In addition, the “internalization by cancer cells (in words)” value with JJ5 Breast Cancer cells [3] (JJ5 cells) is recorded as “rapidly internalized”. Also, in the assay on JJ5 Breast Cancer cells [3] (JJ5 cells, 37° C.), the “binding by the breast cancer cells (kinetics, in words)” value is given as “rapidly bound” and the “retained by the breast cancer cells” value was “at least 24 hours”. In the assay with JJ5 Breast Cancer cells [3] (JJ5 cells, 37° C., 30 minutes), the “affinity constant for binding to JJ5 cells” value was determined as 8e+08 L/mol. Also, in the assay with JJ5 Breast Cancer cells [3] (over a 24 hour period at 37° C.), the “111In radioactivity lost from the cells in vitro” value was below 8%. In the assay on JJ5 Breast Cancer cells [2] (3.4 pCi/cell), the “growth inhibition of the JJ5 cells compared to the medium control” value stood at 83%.

(Values after patent publication US20040220084A1, “Methods for nucleic acid delivery” (priority 2003, published 2004).)
